# Test results as given in patent US5235039A, “Substrates for HIV protease” (Eli Lilly and Company, priority 1991, dated 1993).
# Molecular target: T1, HIV-1 protease (HIV-1 M:B_HXB2R, UniProt P04585)
# T1 construct: enzyme solution in MES-ALB buffer
# Assay: HIV-1 protease inhibitor assay (particle concentration fluorescence, Pandex)
# Type: biochemical
# Conditions: inhibitor at a concentration of about 7 μM; FIG. 1
# Procedure: The modified decapeptide is dissolved in a suitable buffer at a pH between about 5 and about 6 to form a solution at a desirable concentration, e.g. about 1.5 μg/ml. A separate solution of the protease in the same buffer is prepared at a sufficient concentration of protease to hydrolyze all substrate. To each well of a round-bottom, 96-well plate, e.g. a polystyrene microtiter plate, is added the enzyme solution followed by a buffered solution of the inhibitor compound. The solution of the inhibitor may be diluted in 20% aqueous dimethylsulfoxide when necessary for solubility. The plates are allowed to stand for about one hour at about room temperature before the substrate solution is added to each well. […] Unbound fluorescence is removed by filtration and subsequent washing with buffer. Any bound fluorescence is detected by excitation at 485 nm and reading the resulting epifluorescence at 535 nm. The amount of fluorescence indicates the extent to which the enzymatic reaction is inhibited.
# As described hereinabove the Pandex Plates used in the assay method are 96-well two-chamber plates (upper and lower chambers) wherein the chambers are separated by a […] pore size membrane. […] Any fluorescent marked cleavage fragment (unbound fluorescence) in the wells is washed from the well and out of the plate. […]
substance,measurement,value
Ac-Nal-Pro-Phe-Val-Sta-Leu-Phe-NH2,percent inhibition of the protease,100%
